The target of the assay is Pim-1 (Homo sapiens (Human), UniProt P11309). The assay can be described thus: Pim kinase binding activity assay (Example 901), PIM-1 enzyme, Caliper microfluidic peptide phosphorylation. Format: biochemical. The following applies: 20 pM PIM-1, 10 μM ATP, 1 μM FAM-peptide, 90 minutes at room temperature. In short, it runs like this: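 PIM-1 at 20 pM phosphorylated 1 μM FAM-labelled Pim peptide with 10 μM ATP in HEPES pH 7.2, MgCl2, Tween 20 and DTT for 90 min at room temperature. EDTA stopped the reaction, and product and substrate were resolved by microfluidic electrophoresis (ex 488/em 530 nm). Ki was derived from substrate conversion.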
Pim-1, sequence (P11309 whole entry): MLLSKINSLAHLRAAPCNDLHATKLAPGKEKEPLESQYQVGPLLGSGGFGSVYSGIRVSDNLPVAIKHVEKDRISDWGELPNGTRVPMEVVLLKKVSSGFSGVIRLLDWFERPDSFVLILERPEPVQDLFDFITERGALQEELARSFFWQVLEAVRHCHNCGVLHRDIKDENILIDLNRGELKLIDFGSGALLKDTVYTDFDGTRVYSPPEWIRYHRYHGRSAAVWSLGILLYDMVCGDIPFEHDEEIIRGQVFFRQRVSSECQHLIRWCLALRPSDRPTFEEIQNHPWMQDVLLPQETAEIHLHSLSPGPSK
The term Ki denotes a measure of affinity in units of concentration, obtained from inhibition or displacement. A higher Ki goes with lower affinity. `O=C1N(CC2CCNCC2)CCN1c1n[nH]c2cnc(-c3cccnc3)cc12` [Example 296, 1-(piperidin-4-ylmethyl)-3-(5-(pyridin-3-yl)-1H-pyrazolo[3,4-c]pyridin-3-yl)imidazolidin-2-one] registered an inhibitory constant (Ki) of 9.74 nM.

`Cn1cc(-c2cc3c(-c4cccc(NCC(C)(C)O)n4)n[nH]c3cn2)cn1` [Example 297, 2-methyl-1-(6-(5-(1-methyl-1H-pyrazol-4-yl)-1H-pyrazolo[3,4-c]pyridin-3-yl)pyridin-2-ylamino)propan-2-ol] returned an inhibitory constant (Ki) of 0.034 nM.

`NC(=O)Nc1cc2c(-c3cccc(N4CCC[C@H](N)C4)n3)n[nH]c2cn1` [Example 298, (S)-1-(3-(6-(3-aminopiperidin-1-yl)pyridin-2-yl)-1H-pyrazolo[3,4-c]pyridin-5-yl)urea]: the affinity corresponds to a Ki of 14.1 nM.

Regarding `N[C@H]1CCC[C@@H](Oc2cccc(-c3n[nH]c4cnc(-c5cccnc5)cc34)n2)C1` [Example 299, (1S,3R)-3-(6-(5-(pyridin-3-yl)-1H-pyrazolo[3,4-c]pyridin-3-yl)pyridin-2-yloxy)cyclohexanamine], the Ki amounted to 0.664 nM.

The compound `N[C@@H]1CCCN(c2nccc(-c3n[nH]c4cnc(-c5cccnc5)cc34)n2)C1` [Example 300, (R)-1-(4-(5-(pyridin-3-yl)-1H-pyrazolo[3,4-c]pyridin-3-yl)pyrimidin-2-yl)piperidin-3-amine] yielded an inhibitory constant (Ki) of 0.07 nM.

As to `NC(=O)c1ccnc(-c2n[nH]c3cnc(-c4cccnc4)cc23)c1` [Example 302, 2-(5-(pyridin-3-yl)-1H-pyrazolo[3,4-c]pyridin-3-yl)isonicotinamide], the Ki is 6 nM.

Compound `O=C1N(CC2CCNC2)CCN1c1n[nH]c2cnc(-c3cccnc3)cc12` (stereo not shown) [Example 303, 1-(5-(pyridin-3-yl)-1H-pyrazolo[3,4-c]pyridin-3-yl)-3-(pyrrolidin-3-ylmethyl)imidazolidin-2-one] yielded a Ki of 4.11 nM.

For `Cc1ccc(-c2n[nH]c3cnc(-c4cccnc4)cc23)nc1N1CC[C@H](O)C1` [Example 305, (S)-1-(3-methyl-6-(5-(pyridin-3-yl)-1H-pyrazolo[3,4-c]pyridin-3-yl)pyridin-2-yl)pyrrolidin-3-ol], affinity was put at a Ki of 0.091 nM.

`Cc1ccc(-c2n[nH]c3cnc(-c4cccnc4)cc23)nc1N1CC[C@@H](O)C1` [Example 306, (R)-1-(3-methyl-6-(5-(pyridin-3-yl)-1H-pyrazolo[3,4-c]pyridin-3-yl)pyridin-2-yl)pyrrolidin-3-ol] gave a Ki of 0.22 nM.

As to `C=C(C)c1ccc(-c2n[nH]c3cnc(-c4cccnc4)cc23)nc1N1CCC[C@H](N)C1` [Example 308, (S)-1-(3-(prop-1-en-2-yl)-6-(5-(pyridin-3-yl)-1H-pyrazolo[3,4-c]pyridin-3-yl)pyridin-2-yl)piperidin-3-amine], affinity was put at a Ki of 0.01 nM.

Take `Cc1ccc(-c2n[nH]c3cnc(-c4cccnc4)cc23)nc1N1CCC[C@@H](O)C1` [Example 309, (R)-1-(3-methyl-6-(5-(pyridin-3-yl)-1H-pyrazolo[3,4-c]pyridin-3-yl)pyridin-2-yl)piperidin-3-ol]: the Ki stood at 0.112 nM.

Compound `Cc1ccc(-c2n[nH]c3cnc(-c4cccnc4)cc23)nc1N1CCC[C@@H](N)C1` [Example 310, (R)-1-(3-methyl-6-(5-(pyridin-3-yl)-1H-pyrazolo[3,4-c]pyridin-3-yl)pyridin-2-yl)piperidin-3-amine] came in with an inhibitory constant (Ki) of 0.137 nM.

The compound `N[C@H]1CCCN(c2nc(-c3n[nH]c4cnc(-c5cccnc5)cc34)ccc2Br)CC1` [Example 312, (S)-1-(3-bromo-6-(5-(pyridin-3-yl)-1H-pyrazolo[3,4-c]pyridin-3-yl)pyridin-2-yl)azepan-4-amine] displayed a Ki of 0.029 nM.

As for `N[C@@H]1CCCN(c2nc(-c3n[nH]c4cnc(-c5cccnc5)cc34)ccc2Br)CC1` [Example 313, (R)-1-(3-bromo-6-(5-(pyridin-3-yl)-1H-pyrazolo[3,4-c]pyridin-3-yl)pyridin-2-yl)azepan-4-amine], the affinity, expressed as Ki, was 0.028 nM.

`Cc1ccc(-c2n[nH]c3cnc(-c4cccnc4)cc23)nc1N1CCC[C@H](N)C1` [Example 315, (S)-1-(3-methyl-6-(5-(pyridin-3-yl)-1H-pyrazolo[3,4-c]pyridin-3-yl)pyridin-2-yl)piperidin-3-amine] returned a Ki of 0.00806 nM.

With `Cc1ccc(-c2n[nH]c3cnc(-c4cccnc4)cc23)nc1N1CC[C@H](N)C1` [Example 317, (S)-1-(3-methyl-6-(5-(pyridin-3-yl)-1H-pyrazolo[3,4-c]pyridin-3-yl)pyridin-2-yl)pyrrolidin-3-amine], the inhibition constant Ki stood at 0.059 nM.

`O[C@H]1CCN(c2nc(-c3n[nH]c4cnc(-c5cccnc5)cc34)ccc2Br)C1` [Example 318, (S)-1-(3-bromo-6-(5-(pyridin-3-yl)-1H-pyrazolo[3,4-c]pyridin-3-yl)pyridin-2-yl)pyrrolidin-3-ol] yielded a Ki of 0.059 nM.

As to `c1cncc(-c2cc3c(N4CCC(N5CCNCC5)C4)n[nH]c3cn2)c1` (stereo not shown) [Example 320, 3-(3-(piperazin-1-yl)pyrrolidin-1-yl)-5-(pyridin-3-yl)-1H-pyrazolo[3,4-c]pyridine], affinity was put at a Ki of 3.86 nM.

The compound `N[C@H]1C[C@@H](F)CN(c2cccc(-c3n[nH]c4cnc(-c5cccnc5)cc34)n2)C1` [Example 321, (3S,5R)-5-fluoro-1-(6-(5-(pyridin-3-yl)-1H-pyrazolo[3,4-c]pyridin-3-yl)pyridin-2-yl)piperidin-3-amine] returned a Ki of 0.0662 nM.

`O=C1CN(c2cccc(-c3n[nH]c4cnc(-c5cccnc5)cc34)n2)CCCN1` [Example 322, 4-(6-(5-(pyridin-3-yl)-1H-pyrazolo[3,4-c]pyridin-3-yl)pyridin-2-yl)-1,4-diazepan-2-one] gave a Ki of 0.322 nM.

The compound `c1ccc(-c2n[nH]c3cnc(-c4cncs4)cc23)cc1` [Example 323, 5-(3-phenyl-1H-pyrazolo[3,4-c]pyridin-5-yl)thiazole] had a Ki of 33 nM.

Compound `NCC1CCCCN1c1cccc(-c2n[nH]c3cnc(-c4cccnc4)cc23)n1` (stereo not shown) [Example 324, (1-(6-(5-(pyridin-3-yl)-1H-pyrazolo[3,4-c]pyridin-3-yl)pyridin-2-yl)piperidin-2-yl)methanamine] showed a Ki of 0.296 nM.

Compound `NC1CCN(C(=O)C2CCN(c3n[nH]c4cnc(-c5cccnc5)cc34)C2=O)CC1` (stereo not shown) [Example 325, 3-(4-aminopiperidine-1-carbonyl)-1-(5-(pyridin-3-yl)-1H-pyrazolo[3,4-c]pyridin-3-yl)pyrrolidin-2-one] registered an inhibitory constant (Ki) of 106 nM.

In the case of `NCCNC(=O)c1cccc(-c2n[nH]c3cnc(-c4cccnc4)cc23)n1` [Example 326, N-(2-aminoethyl)-6-(5-(pyridin-3-yl)-1H-pyrazolo[3,4-c]pyridin-3-yl)picolinamide], the Ki is 17.7 nM.

In turn, `CCc1ccc(-c2n[nH]c3cnc(-c4cccnc4)cc23)nc1N1CCC[C@H](N)C1` [Example 327, (S)-1-(3-ethyl-6-(5-(pyridin-3-yl)-1H-pyrazolo[3,4-c]pyridin-3-yl)pyridin-2-yl)piperidin-3-amine] yielded an inhibitory constant (Ki) of 0.035 nM.

`CC(C)c1ccc(-c2n[nH]c3cnc(-c4cccnc4)cc23)nc1N1CCC[C@H](N)C1` [Example 328, (S)-1-(3-isopropyl-6-(5-(pyridin-3-yl)-1H-pyrazolo[3,4-c]pyridin-3-yl)pyridin-2-yl)piperidin-3-amine] had a Ki of 0.046 nM.

Turning to `O=C(NC1CNC1)c1cccc(-c2n[nH]c3cnc(-c4cccnc4)cc23)n1` [Example 329, N-(azetidin-3-yl)-6-(5-(pyridin-3-yl)-1H-pyrazolo[3,4-c]pyridin-3-yl)picolinamide], the affinity, expressed as Ki, was 16.5 nM.

In the case of `CN1CCN(c2cc3c(-c4ccccc4)n[nH]c3cn2)CC1=O` [Example 330, 1-methyl-4-(3-phenyl-1H-pyrazolo[3,4-c]pyridin-5-yl)piperazin-2-one], the affinity corresponds to a Ki of 660 nM.

The compound `CN1CCN(c2cc3c(-c4cnn(C)c4)n[nH]c3cn2)CC1=O` [Example 331, 1-methyl-4-(3-(1-methyl-1H-pyrazol-4-yl)-1H-pyrazolo[3,4-c]pyridin-5-yl)piperazin-2-one] displayed a Ki of 721 nM.

`Cn1cc(-c2cc3c(-c4ccccn4)n[nH]c3cn2)cn1` [Example 332, 5-(1-methyl-1H-pyrazol-4-yl)-3-(pyridin-2-yl)-1H-pyrazolo[3,4-c]pyridine] returned an inhibition constant (Ki) of 7.71 nM.

The compound `NCCC1CCN(c2cccc(-c3n[nH]c4cnc(-c5cccnc5)cc34)n2)C1` (stereo not shown) [Example 333, 2-(1-(6-(5-(pyridin-3-yl)-1H-pyrazolo[3,4-c]pyridin-3-yl)pyridin-2-yl)pyrrolidin-3-yl)ethanamine] displayed an inhibitory constant (Ki) of 0.13 nM.

On to `N[C@H]1CCN(c2ccc(-c3n[nH]c4cnc(-c5cccnc5)cc34)nc2)C1=O` [Example 334, (S)-3-amino-1-(6-(5-(pyridin-3-yl)-1H-pyrazolo[3,4-c]pyridin-3-yl)pyridin-3-yl)pyrrolidin-2-one], for which the affinity corresponds to a Ki of 1.57 nM.

`O=C1CN(c2cc3c(-c4cccc(N5CCNCC5)n4)n[nH]c3cn2)CCN1` [Example 335, 4-(3-(6-(piperazin-1-yl)pyridin-2-yl)-1H-pyrazolo[3,4-c]pyridin-5-yl)piperazin-2-one] showed a Ki of 12.6 nM.

Compound `NC1CCN(C(=O)c2cccc(-c3n[nH]c4cnc(-c5cccnc5)cc34)n2)CC1` [Example 336, (4-aminopiperidin-1-yl)(6-(5-(pyridin-3-yl)-1H-pyrazolo[3,4-c]pyridin-3-yl)pyridin-2-yl)methanone] had a Ki of 12.7 nM.

`O=C(NC1CCNCC1)c1cccc(-c2n[nH]c3cnc(-c4cccnc4)cc23)n1` [Example 337, N-(piperidin-4-yl)-6-(5-(pyridin-3-yl)-1H-pyrazolo[3,4-c]pyridin-3-yl)picolinamide]: the Ki came out at 30.5 nM.

As for `c1ccc(-c2n[nH]c3cnc(-c4cncs4)cc23)nc1` [Example 338, 5-(3-(pyridin-2-yl)-1H-pyrazolo[3,4-c]pyridin-5-yl)thiazole], the Ki was 24.5 nM.

`CN1CCN(c2cc3c(-c4ccccc4F)n[nH]c3cn2)CC1=O` [Example 339, 4-(3-(2-fluorophenyl)-1H-pyrazolo[3,4-c]pyridin-5-yl)-1-methylpiperazin-2-one] came in with a Ki of 5500 nM.

The values above are taken from patent publication US9260425B2 (Genetech, Inc., priority 2011, dated 2016).
